According to US20240148747A1, “SMALL MOLECULE ACTIVATORS OF YAP TRANSCRIPTIONAL ACTIVITY FOR REGENERATIVE ORGAN REPAIR” (THE SCRIPPS RESEARCH INSTITUTE, priority 2021, published 2024):
Read-outs that look alike come from different tables or passages of the source.

Columns and labels:
[1] = Cytotoxicity in the TEAD-LUC activation assay; conditions: human
YAP = assay: TEAD-LUC activation assay (293A-TEAD-LUC reporter); format: cell-based; conditions: Homo sapiens, read-out: TEAD-LUC activation assay EC50
Description: More specifically, we used a 293A cell line harboring a stably integrated cassette containing 8 copies of the TEAD binding element upstream of luciferase (8xGTII-LUC). These cells retain responsiveness to contact inhibition-induced decreases in YAP transcriptional output.^6 The TEAD-responsive reporter assay (called 293A-TEAD-LUC throughout) was adapted to 1536-well format and then used to screen a library of ˜738k compounds for YAP-inducing activity.
Additional compounds of the present disclosure were subjected to the assay described above.

Row | Compound | EC50 (YAP; Table 3) [µM] | EC50 (YAP; Table 4) [µM] | IC50 [1] [µM]
1 | O=C(Nc1ccccc1-n1cncn1)c1cc(-c2ccccc2)on1 [Compound 143] | – | > 20 | > 20
2 | NC(=O)CCN(Cc1ccccc1)C(=O)c1cc(-c2ccccc2)on1 [Compound 133] | – | > 20 | > 20
3 | O=C(NCCN1CCOCC1)c1cc(-c2ccc(F)cc2)on1 [Compound 136] | – | 5.52 | > 20
4 | O=C(Nc1cccc(N2CCOC2=O)c1)c1cc(-c2ccccc2)on1 [Compound 144] | – | 10 | > 20
5 | COc1ccccc1-c1cc(C(=O)N2CCCC2c2cc(C)no2)no1 (stereo not shown) [Compound 109] | – | > 20 | > 20
6 | CCN(CC)CCCNC(=O)c1cc(-c2ccc(Cl)cc2)on1 [Compound 117] | – | > 20 | > 20
7 | O=C(NCCCn1cccn1)c1cc(-c2ccccc2)on1 [Compound 111] | – | 1.6 | > 20
8 | Cc1nc(CCCNC(=O)c2cc(-c3ccccc3)on2)sc1C [Compound 142] | – | 4.71 | > 20
9 | COc1ccc2cc(NC(=O)c3n[nH]c4c3CCCCC4)cnc2c1 [Compound 157] | – | 10 | > 20
10 | O=C(NCCCN1CCOCC1)c1cc(-c2ccccc2)on1 [Compound 112] | – | 6.71 | > 20
11 | CCN1C(=O)CCc2cc(NC(=O)c3n[nH]c4ccccc34)ccc21 [Compound 145] | – | 2 | > 20
12 | CC(=O)N1CCCN(C(=O)c2cc(-c3ccccc3)on2)CC1 [Compound 139] | – | > 20 | > 20
13 | Cc1ccc(CCNC(=O)c2cc(-c3ccccc3)on2)cc1 [Compound 48] | > 20 | – | > 20
14 | O=C(NCCc1nccs1)c1cc(-c2c(F)cccc2F)on1 [Compound 98] | > 20 | – | > 20
15 | O=C(NCCCc1nccs1)c1cn2ccccc2n1 [Compound 35] | > 20 | – | > 20
16 | O=C(NCCCn1ccnc1)c1cc(-c2ccccc2)on1 [Compound 114] | – | 2.97 | > 20
17 | CCN1C(=O)CCc2cc(NC(=O)c3cccc(Br)c3)ccc21 [Compound 152] | – | 10 | > 20
18 | O=C(NCCCN1CCOCC1)c1cc(-c2ccc(Cl)cc2)on1 [Compound 134] | – | > 20 | > 20
19 | Cc1ccc(C(=O)NC2CCN(C(=O)c3cc(-c4ccccc4)on3)CC2)o1 [Compound 132] | – | > 20 | > 20
20 | CC(CNC(=O)c1cc(-c2ccccc2)on1)c1ccc(Cl)cc1 (stereo not shown) [Compound 64] | > 20 | – | > 20
21 | O=C(NCCCn1cccc1)c1noc(-c2ccccc2)n1 [Compound 22] | > 20 | – | > 20
22 | C[C@H](NC(=O)c1cc(-c2ccccc2)on1)c1ccc(Cl)cc1 [Compound 67] | > 20 | – | > 20
23 | CCN1CCN(C(CNC(=O)c2cc(-c3ccccc3)on2)c2ccc(OC)cc2)CC1 (stereo not shown) [Compound 118] | – | > 20 | > 20
24 | O=C(NCCc1cccc(F)c1)c1cc(-c2ccccc2)on1 [Compound 55] | > 20 | – | > 20
25 | CC(C)(NC(=O)c1cc(-c2ccccc2)on1)C(F)(F)F [Compound 44] | > 20 | – | > 20
26 | O=C(NCCN1CCOCC1)c1cc(-c2ccccc2)on1 [Compound 122] | – | 5.48 | > 20
27 | O=C(NCCc1ccc(F)c(Cl)c1)c1cc(-c2ccccc2)on1 [Compound 68] | > 20 | – | > 20
28 | O=C(NCCCn1cccc1)c1cc(-c2ccccc2)[nH]n1 [Compound 10] | > 20 | – | > 20
29 | CC(=O)c1ccc(NC(=O)c2cc(-c3ccncc3)[nH]n2)cc1 [Compound 153] | – | > 20 | > 20
30 | CN1C(=O)CCc2cc(NC(=O)c3ccncc3)ccc21 [Compound 146] | – | 15 | > 20

Further lines, with some results ahead:

Row | EC50 (YAP; Table 3) [µM] | EC50 (YAP; Table 4) [µM] | Compound | IC50 [1] [µM]
31 | > 20 | – | O=C(NCCCN1CCCC1)c1cc(-c2ccccc2)on1 [Compound 5] | > 20
32 | > 20 | – | CC(C)(CNC(=O)c1cc(-c2ccccc2)on1)C(F)(F)F [Compound 43] | > 20
33 | 3.38 | – | COC(=O)N1CCN(CCCNC(=O)c2cc(-c3ccccc3)on2)CC1 [Compound 41] | > 20
34 | 3.58 | – | CC(C)(C)OC(=O)NCCNC(=O)c1cc(-c2ccccc2)on1 [Compound 59] | > 20
35 | > 20 | – | C[C@@H](NC(=O)c1cc(-c2ccccc2)on1)c1ccccc1 [Compound 62] | > 20
36 | > 20 | – | N#Cc1ccc(-c2cc(C(=O)NCCCn3cccc3)no2)cc1 [Compound 20] | > 20
37 | > 20 | – | O=C(NCCCc1nccs1)c1noc(-c2ccccc2)c1-c1ccccc1 [Compound 33] | > 24
38 | > 20 | – | Cc1cncc(C(=O)NCCCc2nccs2)c1 [Compound 96] | > 20
39 | 3.34 | – | O=C(NCCCN1CCN(C(=O)c2ccccc2)CC1)c1cc(-c2ccccc2)on1 [Compound 38] | > 20
40 | > 20 | – | CN(CC(F)F)C(=O)c1cc(-c2ccccc2)on1 [Compound 60] | 12
41 | > 20 | – | Cn1nc(C(=O)NCCCn2cccc2)cc1-c1ccccc1 [Compound 11] | > 20
42 | 4.36 | – | CC(=O)N1CCN(CCCNC(=O)c2cc(-c3ccccc3)on2)CC1 [Compound 36] | > 20
43 | > 20 | – | O=C(NCCCn1cccc1)c1cc(-c2cccnc2)on1 [Compound 21] | > 20
44 | > 20 | – | O=C(NCCc1c[nH]c2ccccc12)c1cc(-c2ccccc2)on1 [Compound 49] | > 20
45 | > 20 | – | O=C(NCCCn1ccnn1)c1cc(-c2ccc(Cl)cc2)on1 [Compound 81] | > 20
46 | > 20 | – | O=C(NCCCc1nccs1)c1ncc(-c2ccccc2)o1 [Compound 102] | > 20
47 | > 20 | – | COc1ccc(-c2cc(C(=O)NCCCn3ccnn3)no2)cc1 [Compound 73] | > 20
48 | > 20 | – | O=C(NCCCc1nccs1)c1cc(C(F)(F)F)ncn1 [Compound 105] | > 20
49 | > 20 | – | O=C(NCCCn1ccnn1)c1cc(-c2ccc(F)c(F)c2)on1 [Compound 79] | > 20
50 | > 20 | – | O=C(NC12CC(C(F)(F)F)(C1)C2)c1cc(-c2ccccc2)on1 [Compound 56] | > 20
51 | 2.5 | – | O=C(NCCc1nccs1)c1cc(-c2ccccc2)on1 [Compound 90] | > 20

Row | EC50 (YAP; Table 3) [µM] | EC50 (YAP; Table 4) [µM] | Compound | IC50 [1] [µM]
52 | > 20 | – | CN(CCO)C(=O)c1cc(-c2ccccc2)on1 [Compound 66] | > 20
53 | 2.76 | – | CN(CCCNC(=O)c1cc(-c2ccccc2)on1)S(C)(=O)=O [Compound 24] | > 20
54 | > 20 | – | O=C(NCCCNc1ccccc1F)c1cc(-c2ccccc2)on1 [Compound 85] | > 20
55 | 3.8 | – | O=C(NCCCc1ncco1)c1cc(-c2ccccc2)on1 [Compound 27] | > 20
56 | 5 | – | O=C(NCCCn1ccnn1)c1cc(-c2ccc(F)cc2)on1 [Compound 70] | > 20
57 | > 20 | – | O=C(NCCCn1ccnn1)c1cc(-c2ccc(C(F)(F)F)cc2)on1 [Compound 76] | > 20
58 | 1.41 | – | O=C(NCCCn1ccc2ccccc21)c1cc(-c2ccccc2)on1 [Compound 4] | > 20
59 | 1.87 | – | O=C(NCCn1cccc1)c1cc(-c2ccccc2)on1 [Compound 15] | > 20
60 | > 20 | – | O=C(NCCCn1cccc1)c1noc2c1OCc1ccccc1-2 [Compound 31] | > 20
61 | > 20 | – | O=C(NCCCn1ccc(-c2ccccc2)c1)c1cc(-c2ccccc2)on1 [Compound 26] | > 20
62 | 2.36 | – | CSCCNC(=O)c1cc(-c2ccccc2)on1 [Compound 61] | > 20
63 | 10 | – | O=C(NCCCc1nccs1)c1cc(-c2ccc(F)cc2F)on1 [Compound 89] | > 20
64 | 2.5 | – | O=C(NCCCNc1cccc(F)c1)c1cc(-c2ccccc2)on1 [Compound 95] | > 20
65 | 0.91 | – | O=C(NCCCNc1ccccc1)c1cc(-c2ccccc2)on1 [Compound 6] | > 20
66 | 5.16 | – | Cc1ccn(CCCNC(=O)c2cc(-c3ccccc3)on2)c1 [Compound 19] | > 20
67 | 1.67 | – | O=C(NCCCc1ncno1)c1cc(-c2ccccc2)on1 [Compound 28] | > 20
68 | 3.17 | – | O=C(NC1CC(OC(F)F)C1)c1cc(-c2ccccc2)on1 (stereo not shown) [Compound 45] | > 20
69 | 15 | – | O=C(NCCCc1nccs1)c1cc(C(F)(F)F)ccn1 [Compound 91] | > 20
70 | 1 | – | O=C(NCCCc1nccs1)c1cc(-c2c(F)cccc2F)on1 [Compound 94] | > 20
71 | 1.27 | – | O=C(NCCCn1cccc1)c1cc(-c2ccccc2F)on1 [Compound 16] | > 20
